The target of data set [1] is Voltage-gated inwardly rectifying potassium channel KCNH2 (Homo sapiens, UniProt Q12809). The following applies: hek293. Also: in other assays of this panel Not Active means under 50% inhibition at 10 µM.
The next data set has as its target T1, Cathepsin G (Homo sapiens, UniProt P08311).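 Also: inhibition of Cathepsin G enzyme activity, tested on an AMC-conjugated peptide substrate; in other assays of this panel Not Active means under 50% inhibition at 10 µM.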
T1 sequence (P08311 whole entry): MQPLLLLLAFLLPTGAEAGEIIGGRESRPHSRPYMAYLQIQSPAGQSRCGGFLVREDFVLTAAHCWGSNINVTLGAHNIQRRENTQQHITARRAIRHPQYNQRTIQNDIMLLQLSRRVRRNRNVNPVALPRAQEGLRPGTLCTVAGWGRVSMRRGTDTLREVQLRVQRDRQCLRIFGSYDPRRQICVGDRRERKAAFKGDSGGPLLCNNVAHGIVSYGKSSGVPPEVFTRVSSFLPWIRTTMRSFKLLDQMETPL
The format is tissue-based. Conditions: neutrophil.

Data set [2] addresses T2, Alpha-2A adrenergic receptor (Homo sapiens, UniProt P08913).
T2 sequence (P08913 whole entry): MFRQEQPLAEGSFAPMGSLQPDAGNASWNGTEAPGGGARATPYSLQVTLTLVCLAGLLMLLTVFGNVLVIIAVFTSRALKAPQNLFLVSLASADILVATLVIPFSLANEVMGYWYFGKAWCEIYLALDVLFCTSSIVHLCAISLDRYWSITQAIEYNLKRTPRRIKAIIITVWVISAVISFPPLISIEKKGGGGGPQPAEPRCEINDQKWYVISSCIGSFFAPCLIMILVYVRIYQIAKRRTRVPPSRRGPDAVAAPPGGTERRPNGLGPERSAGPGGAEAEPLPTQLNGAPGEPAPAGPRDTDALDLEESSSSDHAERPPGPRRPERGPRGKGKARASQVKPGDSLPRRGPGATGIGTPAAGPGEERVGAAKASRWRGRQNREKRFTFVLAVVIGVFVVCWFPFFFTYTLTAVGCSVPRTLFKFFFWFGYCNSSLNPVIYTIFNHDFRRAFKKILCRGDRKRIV
Type of data set: cell membranes, Sf9, Membrane. The following applies: sf9.

Data set [3] concerns the target Prostaglandin G/H synthase 1 (Homo sapiens, UniProt P23219). The data set can be described thus: biochemical. Type of data set: tissue-based, Platelet. Conditions: platelet.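 Also: inhibition of COX-1 enzyme activity, with arachidonic acid supplied as substrate; in other assays of this panel Not Active means under 50% inhibition at 10 µM.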
Data set [4] concerns the target Protein phosphatase 3 catalytic subunit alpha (Homo sapiens, UniProt Q08209). On the set-up: species or system Escherichia coli.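 Also: inhibition of calcineurin (PP2B) enzyme activity, measured with DiFMUP as the substrate; in other assays of this panel Not Active means under 50% inhibition at 10 µM.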
For data set [5], the target named is T3, Polyunsaturated fatty acid lipoxygenase ALOX15 (Oryctolagus cuniculus, UniProt P12530).
T3 sequence (P12530 whole entry): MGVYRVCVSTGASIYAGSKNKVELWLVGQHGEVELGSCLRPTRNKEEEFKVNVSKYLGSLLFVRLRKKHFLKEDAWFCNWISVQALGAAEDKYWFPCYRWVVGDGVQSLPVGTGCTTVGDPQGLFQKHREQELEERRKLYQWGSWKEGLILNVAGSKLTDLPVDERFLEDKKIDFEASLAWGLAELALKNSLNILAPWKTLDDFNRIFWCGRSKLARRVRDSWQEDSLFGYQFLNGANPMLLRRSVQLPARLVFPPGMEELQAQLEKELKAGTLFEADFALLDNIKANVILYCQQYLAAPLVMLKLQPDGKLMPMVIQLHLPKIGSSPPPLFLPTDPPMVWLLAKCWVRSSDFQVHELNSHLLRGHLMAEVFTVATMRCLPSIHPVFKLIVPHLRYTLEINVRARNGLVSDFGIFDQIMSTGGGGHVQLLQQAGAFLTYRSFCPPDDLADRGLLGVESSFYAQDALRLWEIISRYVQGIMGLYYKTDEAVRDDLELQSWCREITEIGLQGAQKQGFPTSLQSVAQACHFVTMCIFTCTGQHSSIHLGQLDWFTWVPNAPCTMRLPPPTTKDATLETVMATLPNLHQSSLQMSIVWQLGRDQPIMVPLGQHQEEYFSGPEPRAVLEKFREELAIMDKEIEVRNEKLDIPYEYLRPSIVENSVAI
Description: biochemical. The format is tissue-based, Reticulocytes.

The target in data set [6] is Beta-1 adrenergic receptor (Homo sapiens, UniProt P08588). Description: DRUGMATRIX: Adrenergic beta1 radioligand binding (ligand: [125I] Cyanopindolol). Type of data set: cell membranes, CHO-K1, Membrane. Conditions: cho-k1; Not Active = under 50% inhibition at 10 µM.

The values that follow come from ChEMBL document CHEMBL1909046, “DrugMatrix in vitro pharmacology data”.

The IC50 is the concentration needed to halve the response being measured.

SMILES strings stand for the structures.

Sequence of Prostaglandin G/H synthase 1 (P23219 whole entry): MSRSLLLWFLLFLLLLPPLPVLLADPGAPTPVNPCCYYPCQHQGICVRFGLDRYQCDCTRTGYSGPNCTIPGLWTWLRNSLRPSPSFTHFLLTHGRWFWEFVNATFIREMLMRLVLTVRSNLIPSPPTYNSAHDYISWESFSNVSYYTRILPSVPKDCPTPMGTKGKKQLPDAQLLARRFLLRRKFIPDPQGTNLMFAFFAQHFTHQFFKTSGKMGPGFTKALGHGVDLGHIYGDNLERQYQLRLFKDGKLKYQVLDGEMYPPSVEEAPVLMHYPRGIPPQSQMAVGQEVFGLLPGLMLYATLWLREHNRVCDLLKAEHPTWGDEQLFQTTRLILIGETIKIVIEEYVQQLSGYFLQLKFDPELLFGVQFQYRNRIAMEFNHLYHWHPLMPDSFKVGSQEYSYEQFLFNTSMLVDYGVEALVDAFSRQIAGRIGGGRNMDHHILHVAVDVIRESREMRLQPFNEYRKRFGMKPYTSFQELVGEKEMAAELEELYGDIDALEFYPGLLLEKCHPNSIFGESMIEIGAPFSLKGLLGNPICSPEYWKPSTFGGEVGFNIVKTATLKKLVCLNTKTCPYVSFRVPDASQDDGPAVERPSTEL
Sequence of Beta-1 adrenergic receptor (P08588 whole entry): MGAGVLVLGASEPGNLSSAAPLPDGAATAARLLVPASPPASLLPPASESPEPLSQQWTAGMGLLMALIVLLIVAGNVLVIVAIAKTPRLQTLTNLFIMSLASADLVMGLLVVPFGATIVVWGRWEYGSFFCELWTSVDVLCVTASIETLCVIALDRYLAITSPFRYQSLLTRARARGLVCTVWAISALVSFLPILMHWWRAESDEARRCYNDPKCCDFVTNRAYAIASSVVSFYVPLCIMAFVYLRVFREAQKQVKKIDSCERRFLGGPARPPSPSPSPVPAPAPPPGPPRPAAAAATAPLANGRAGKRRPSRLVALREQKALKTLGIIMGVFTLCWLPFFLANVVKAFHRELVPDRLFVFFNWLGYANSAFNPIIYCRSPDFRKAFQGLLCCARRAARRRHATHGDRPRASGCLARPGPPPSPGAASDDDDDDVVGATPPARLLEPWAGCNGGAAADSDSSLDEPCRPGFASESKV
Sequence of Voltage-gated inwardly rectifying potassium channel KCNH2 (Q12809 whole entry): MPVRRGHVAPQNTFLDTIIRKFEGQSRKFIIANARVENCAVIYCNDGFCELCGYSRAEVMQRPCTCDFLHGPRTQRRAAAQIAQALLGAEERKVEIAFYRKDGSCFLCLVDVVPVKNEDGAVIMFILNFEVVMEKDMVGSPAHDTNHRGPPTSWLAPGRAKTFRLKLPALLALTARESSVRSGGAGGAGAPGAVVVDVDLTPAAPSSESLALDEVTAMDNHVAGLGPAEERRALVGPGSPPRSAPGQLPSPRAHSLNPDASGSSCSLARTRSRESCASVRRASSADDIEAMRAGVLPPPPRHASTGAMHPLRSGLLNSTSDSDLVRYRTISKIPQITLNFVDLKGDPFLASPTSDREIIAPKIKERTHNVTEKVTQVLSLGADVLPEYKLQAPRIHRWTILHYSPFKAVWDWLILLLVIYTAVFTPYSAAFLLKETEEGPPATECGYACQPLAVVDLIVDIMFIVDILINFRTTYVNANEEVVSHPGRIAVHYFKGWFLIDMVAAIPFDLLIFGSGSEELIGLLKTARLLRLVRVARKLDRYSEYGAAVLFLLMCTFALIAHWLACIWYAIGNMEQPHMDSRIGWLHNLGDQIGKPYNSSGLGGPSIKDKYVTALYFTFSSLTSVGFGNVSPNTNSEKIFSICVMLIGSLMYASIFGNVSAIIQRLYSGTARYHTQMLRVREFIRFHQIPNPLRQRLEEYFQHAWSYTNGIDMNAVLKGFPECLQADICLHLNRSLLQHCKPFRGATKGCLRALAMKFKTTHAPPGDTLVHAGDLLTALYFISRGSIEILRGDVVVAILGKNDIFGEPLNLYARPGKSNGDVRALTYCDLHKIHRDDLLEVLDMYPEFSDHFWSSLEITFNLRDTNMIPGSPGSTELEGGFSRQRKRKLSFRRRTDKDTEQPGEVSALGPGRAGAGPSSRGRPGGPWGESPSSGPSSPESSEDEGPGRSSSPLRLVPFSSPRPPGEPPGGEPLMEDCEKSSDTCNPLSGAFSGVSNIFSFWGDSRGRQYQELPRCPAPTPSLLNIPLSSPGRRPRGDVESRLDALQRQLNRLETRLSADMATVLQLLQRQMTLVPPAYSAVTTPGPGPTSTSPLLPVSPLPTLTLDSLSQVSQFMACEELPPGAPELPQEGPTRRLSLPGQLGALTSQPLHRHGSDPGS

Consider `C[C@@H]1C[C@@H]([C@H](O)CC2CC(=O)NC(=O)C2)C(=O)[C@@H](C)C1` [CYCLOHEXIMIDE], for which the IC50 result (in data set [1]; on Cathepsin G; in data set [2]; in data set [3]; in data set [4]; in data set [5] (reticulocytes)) was “Not Active” in each case. Besides, the IC50 entry in data set [6] is “Not Active”. Further, in data set [1], the Ki result was “Not Active”.

As for `CN(C)/N=N/c1[nH]cnc1C(N)=O` [DACARBAZINE], the IC50 result (in data set [1]; against Cathepsin G; in data set [2]; in data set [3]; in data set [4]; in data set [5] (reticulocytes)) was “Not Active” throughout. Also, the IC50 entry in data set [6] is “Not Active”. Further, the Ki result in data set [1] is on record as “Not Active”.

For `COc1ccc2c(c1)[C@]13CCCC[C@@H]1[C@H](C2)N(C)CC3` [DEXTROMETHORPHAN], the IC50 entry (in data set [1]; against Cathepsin G; in data set [2]; in data set [3]; in data set [4]; in data set [5] (reticulocytes)) was “Not Active” each time. Besides, in data set [6], the IC50 entry is listed as “Not Active”. In data set [1], the Ki entry is recorded as “Not Active”.

With `CC(=O)Nc1c(I)c(NC(C)=O)c(I)c(C(=O)O)c1I` [DIATRIZOIC ACID], the IC50 entry (in data set [1]; on Cathepsin G; in data set [2]; in data set [3]; in data set [4]; in data set [5] (reticulocytes)) was “Not Active” each time. Moreover, the IC50 result in data set [6] was “Not Active”. In addition, in data set [1], the Ki result is “Not Active”.

As to `COP(=O)(OC)OC=C(Cl)Cl` [DICHLORVOS], the IC50 entry (in data set [1]; on Cathepsin G; in data set [2]; in data set [3]; in data set [4]; in data set [5] (reticulocytes)) was “Not Active” throughout. Also, the IC50 result in data set [6] is “Not Active”. In data set [1], the Ki result is on record as “Not Active”.

Consider `C[C@H]1O[C@@H](O[C@H]2[C@@H](O)C[C@H](O[C@H]3[C@@H](O)C[C@H](O[C@H]4CC[C@@]5(C)[C@H](CC[C@@H]6[C@@H]5CC[C@]5(C)[C@@H](C7=CC(=O)OC7)CC[C@]65O)C4)O[C@@H]3C)O[C@@H]2C)C[C@H](O)[C@@H]1O` [DIGITOXIN], for which the IC50 result (in data set [1]; against Cathepsin G; in data set [2]; in data set [3]; in data set [4]; in data set [5] (reticulocytes)) was “Not Active” throughout. Moreover, the IC50 result in data set [6] is “Not Active”. In data set [1], the Ki entry is “Not Active”.

Consider `CCN1CC(CCN2CCOCC2)C(c2ccccc2)(c2ccccc2)C1=O` (stereo unspecified) [DOXAPRAM], for which the IC50 result (in data set [1]; against Cathepsin G; in data set [2]; in data set [3]; in data set [4]; in data set [5] (reticulocytes)) was “Not Active” in each case. Besides, the IC50 result in data set [6] was “Not Active”. Also, the Ki entry in data set [1] is “Not Active”.

Take `Cn1c(=O)c2c(ncn2CC2OCCO2)n(C)c1=O` [DOXOFYLLINE]: the IC50 entry (in data set [1]; against Cathepsin G; in data set [2]; in data set [3]; in data set [4]; in data set [5] (reticulocytes)) was “Not Active” each time. Further, the IC50 result in data set [6] is listed as “Not Active”. Moreover, in data set [1], the Ki result is reported as “Not Active”.

On to `COc1cccc2c1C(=O)c1c(O)c3c(c(O)c1C2=O)C[C@@](O)(C(=O)CO)C[C@@H]3O[C@H]1C[C@H](N)[C@H](O)[C@H](C)O1` [DOXORUBICIN], for which the IC50 result in data set [1] is “Not Active”; against Cathepsin G, “Not Active”; in data set [2] it was “Not Active”; in data set [3] it was “Not Active”; in data set [4], “Not Active”; in data set [5] (read-out: IC50) it was 13.6 µM. Moreover, the IC50 result in data set [6] is “Not Active”. The Ki result in data set [1] is “Not Active”.

Take `COc1cccc2c1C(=O)c1c(O)c3c(c(O)c1C2=O)C[C@@](O)(C(=O)CO)C[C@@H]3O[C@H]1C[C@H](N)[C@@H](O)[C@H](C)O1` [EPIRUBICIN]: the IC50 entry (in data set [1]; against Cathepsin G; in data set [2]; in data set [3]; in data set [4]; in data set [5] (reticulocytes)) was “Not Active” throughout. For the same molecule, in data set [6], the IC50 result is recorded as “Not Active”. Further, in data set [1], the Ki entry is on record as “Not Active”.

As for `C[C@]12CC[C@@H]3c4ccc(OC(=O)c5ccccc5)cc4CC[C@H]3[C@@H]1CC[C@@H]2O` [ESTRADIOL BENZOATE], the IC50 entry (in data set [1]; against Cathepsin G; in data set [2]; in data set [3]; in data set [4]; in data set [5] (reticulocytes)) was “Not Active” each time. Besides, the IC50 entry in data set [6] is listed as “Not Active”. In addition, the Ki result in data set [1] was “Not Active”.

For the molecule `CC[C@@H](CO)NCCN[C@@H](CC)CO` [ETHAMBUTOL], the IC50 result (in data set [1]; against Cathepsin G; in data set [2]; in data set [3]; in data set [4]; in data set [5] (reticulocytes)) was “Not Active” throughout. Besides, in data set [6], the IC50 entry is “Not Active”. The Ki result in data set [1] is on record as “Not Active”.

In the case of `CC1(C)O[C@@H]2C[C@H]3[C@@H]4C[C@H](F)C5=CC(=O)C=C[C@]5(C)[C@H]4[C@@H](O)C[C@]3(C)[C@]2(C(=O)CO)O1` [FLUNISOLIDE], the IC50 entry (in data set [1]; on Cathepsin G; in data set [2]; in data set [3]; in data set [4]; in data set [5] (reticulocytes)) was “Not Active” throughout. In addition, the IC50 result in data set [6] was “Not Active”. In data set [1], the Ki entry was “Not Active”.

For `CC1(C)O[C@@H]2C[C@H]3[C@@H]4C[C@H](F)C5=CC(=O)C=C[C@]5(C)[C@@]4(F)[C@@H](O)C[C@]3(C)[C@]2(C(=O)CO)O1` [FLUOCINOLONE ACETONIDE], the IC50 entry (in data set [1]; against Cathepsin G; in data set [2]; in data set [3]; in data set [4]; in data set [5] (reticulocytes)) was “Not Active” each time. Moreover, the IC50 result in data set [6] is “Not Active”. Moreover, in data set [1], the Ki entry is “Not Active”.

For `CC1(C)O[C@@H]2C[C@H]3[C@@H]4C[C@H](F)C5=CC(=O)CC[C@]5(C)[C@H]4[C@@H](O)C[C@]3(C)[C@]2(C(=O)CO)O1` [FLURANDRENOLIDE], the IC50 result (in data set [1]; against Cathepsin G; in data set [2]; in data set [3]; in data set [4]; in data set [5] (reticulocytes)) was “Not Active” each time. For the same molecule, the IC50 entry in data set [6] was “Not Active”. Also, the Ki result in data set [1] is “Not Active”.

As for `Cc1ccc(S(=O)(=O)NC(=O)NN2CC3CCCC3C2)cc1` (stereo unspecified) [GLICLAZIDE], the IC50 result (in data set [1]; on Cathepsin G; in data set [2]; in data set [3]; in data set [4]; in data set [5] (reticulocytes)) was “Not Active” each time. Further, the IC50 result in data set [6] is “Not Active”. For the same molecule, the Ki result in data set [1] was “Not Active”.

Consider `NC(=O)NO` [HYDROXYUREA], for which the IC50 result (in data set [1]; against Cathepsin G; in data set [2]; in data set [3]; in data set [4]; in data set [5] (reticulocytes)) was “Not Active” each time. Also, in data set [6], the 50% inhibitory concentration (IC50) result is reported as “Not Active”. Further, the Ki result in data set [1] is on record as “Not Active”.
